The results in this text go back to PMC4045703 (Bioorganic & medicinal chemistry, 2014).

The IC50 is the concentration that gives 50% inhibition. The low end stands for higher potency, the high end for lower potency. In general, MIC refers to the lowest concentration found to suppress growth.

Data set [1] deals with T1, Mtb-FtsZ (Mycobacterium tuberculosis, UniProt P9WN95). Put plainly: Mtb-FtsZ polymerization inhibitory assay. Format: biochemical. To be noted: light scattering, Mtb-FtsZ 15 μM, GTP 100 μM.
T1 sequence (P9WN95 whole entry): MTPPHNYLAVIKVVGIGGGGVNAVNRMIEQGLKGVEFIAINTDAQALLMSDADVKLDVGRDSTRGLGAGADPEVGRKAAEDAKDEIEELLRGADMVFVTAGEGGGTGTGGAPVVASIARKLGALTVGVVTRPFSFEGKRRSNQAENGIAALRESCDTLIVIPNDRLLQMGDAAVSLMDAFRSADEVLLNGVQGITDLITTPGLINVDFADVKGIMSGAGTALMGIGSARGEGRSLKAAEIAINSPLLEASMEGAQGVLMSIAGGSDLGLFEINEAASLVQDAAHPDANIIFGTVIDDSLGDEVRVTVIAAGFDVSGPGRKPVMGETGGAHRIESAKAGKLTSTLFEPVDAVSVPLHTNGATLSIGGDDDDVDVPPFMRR
Data set [2] addresses T1, Mtb-FtsZ. The experiment in a line: Transmission electron microscopy. Conditions: Mtb-FtsZ 5 μM, GTP 25 μM. Format: biochemical.
A short description of a further data set: Cytotoxicity, MTT assay. Format: cell-based. To be noted: African green monkey, Vero cells. Background: Formazan colour is commonly taken as a measure of viable cells.
The subject of the next data set is Mtb H37Rv. Put plainly: MIC determination by microplate Alamar Blue assay. Format: cell-based. To be noted: Mycobacterium tuberculosis, read-out: MIC Mtb H37Rv.

Each structure is given as a SMILES string. Converted amounts (≈) assume the structure as drawn.

As for `CCCCOC(=O)Nc1cc2nc(C3CCCCC3)[nH]c2cc1Oc1ccc(F)cc1` [Compound 5a, 5-Butoxycarbonylamino-2-cyclohexyl-6-(4-fluorophenoxy)-1H-benzo[d]imidazole], at Mtb-FtsZ [1], the “Inhibition of FtsZ polymerization” value is listed as “inhibited FtsZ polymerization in a dose-dependent manner”. In addition, the “Effect on FtsZ polymers in TEM” value at Mtb-FtsZ [2] (5a 40 μM) was “the length, density and aggregation was visibly reduced”; on Mtb-FtsZ [2] (5a 80 μM), “very short and dispersed FtsZ polymers were observed”.
Take `O=C(Nc1cc2nc(C3CCCCC3)[nH]c2cc1Oc1ccc(F)cc1)c1ccc(F)cc1F` [Compound 5d, 2-Cyclohexyl-5-(2,4-difluorobenzamido)-6-(4-fluorophenoxy)-1H-benzo[d]imidazole]: the “Inhibition of FtsZ polymerization” value at Mtb-FtsZ [1] is recorded as “inhibited FtsZ polymerization in a dose-dependent manner”.
The molecule `Cc1ccc(C(=O)Nc2cc3nc(C4CCCCC4)[nH]c3cc2Sc2ccccc2)cc1` [Compound 5f, 2-Cyclohexyl-5-(4-methxylbenzamido)-6-(phenylthio)-1H-benzo[d]imidazole] returned an IC50 at 3 days in “Cytotoxicity, MTT assay” greater than 200 µM.
For `CCCCSc1cc2[nH]c(C3CCCCC3)nc2cc1NC(=O)c1ccc(C)cc1` [Compound 5i, 6-(Butylthio)-5-(4-metylbenzamido)-2-cyclohexyl-1H-benzo[d]imidazole], the MIC with Mtb H37Rv was found to be 1.25 µg/mL (≈ 2.96 µM).
